Results taken from ChEMBL document CHEMBL1759853, “Imidazo[1,5-a]pyrazines: orally efficacious inhibitors of mTORC1 and mTORC2” (Bioorg Med Chem Lett, 2011).
Activity calls are given as the source filed them. The rule behind the calls is not given here.

Assays:
in vitro = details: human, liver microsomes
Description: Metabolic stability in human liver microsome assessed as extraction ratio

cells = details: Homo sapiens, HeLa
[1] = Metabolic stability in mouse liver microsome assessed as extraction ratio; format: ADME; details: liver microsomes
[2] = Plasma protein binding in mouse; format: ADME, cell-free; details: read-out: PPB (converted)
[3] = Inhibition of mTORC2 dependent pAkT S473 phosphorylation in human BT-20 cells; format: cell-based
[4] = target: Proto-oncogene tyrosine-protein kinase Src (Homo sapiens, UniProt P12931); assay: Inhibition of Src
Mus musculus [5] = assay: […] mouse bearing human MDA-MB-231 cells assessed as inhibition of 4E-BP1 T37/46 phosphorylation at 100 mg/kg, po after 4 hrs; format: functional, organism-based; set-up: dose 100 mg/kg
[6] = Permeability of the compound by PAMPA method; format: ADME; details: read-out: permeability
[7] = target: RAF proto-oncogene serine/threonine-protein kinase (Homo sapiens, UniProt P04049); assay: Inhibition of cRaf
[8] = Volume of distribution at steady-state in mouse at 1 mg/kg, iv; format: ADME, organism-based; set-up: dose 1 mg/kg, route intravenous; details: in vivo, read-out: Vdss
[9] = Cmax in mouse at 20 mg/kg, po; format: ADME, organism-based; set-up: dose 20 mg/kg, route oral; details: in vivo
[10] = Aqueous solubility of the compound at pH 7.4; format: physicochemical
[11] = target: T1, 3-phosphoinositide-dependent protein kinase 1 (Homo sapiens, UniProt O15530); assay: Inhibition of PDK1
T1 sequence (O15530 whole entry): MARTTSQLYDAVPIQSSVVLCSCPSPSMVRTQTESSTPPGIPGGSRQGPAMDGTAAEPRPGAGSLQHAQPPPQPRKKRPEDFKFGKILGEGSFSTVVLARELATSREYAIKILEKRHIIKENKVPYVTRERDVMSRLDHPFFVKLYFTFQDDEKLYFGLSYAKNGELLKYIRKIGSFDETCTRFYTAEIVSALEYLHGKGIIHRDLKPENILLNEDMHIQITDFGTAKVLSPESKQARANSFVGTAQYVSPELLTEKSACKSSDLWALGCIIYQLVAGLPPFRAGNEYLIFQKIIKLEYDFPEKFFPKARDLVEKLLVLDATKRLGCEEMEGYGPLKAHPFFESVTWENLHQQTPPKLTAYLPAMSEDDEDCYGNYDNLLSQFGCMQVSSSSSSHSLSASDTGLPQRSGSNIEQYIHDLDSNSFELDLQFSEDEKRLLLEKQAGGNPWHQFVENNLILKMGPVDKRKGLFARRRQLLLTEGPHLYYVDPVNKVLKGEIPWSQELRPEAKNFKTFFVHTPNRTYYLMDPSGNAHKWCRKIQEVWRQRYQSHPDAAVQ

[12] = AUC (0 to infinity) in mouse at 1 mg/kg, iv; format: ADME, organism-based; set-up: time infinity, dose 1 mg/kg, route intravenous; details: plasma
[13] = target: Phosphatidylinositol 4,5-bisphosphate 3-kinase catalytic subunit gamma isoform (Homo sapiens, UniProt P48736); assay: Inhibition of PI3Kgamma
[14] = target: Dual specificity mitogen-activated protein kinase kinase 1 (Homo sapiens, UniProt Q02750); assay: Inhibition of MEK1
[15] = Bioavailability in mouse at 20 mg/kg, po; format: ADME, organism-based; details: in vivo
Mus musculus [16] = assay: […] mouse bearing human MDA-MB-231 cells assessed as inhibition of 4E-BP1 T37/46 phosphorylation at 100 mg/kg, po after 8 hrs; format: functional, organism-based; set-up: dose 100 mg/kg
Insulin receptor = Insulin receptor (Homo sapiens, UniProt P06213); assay: Inhibition of IR
MDA-MB-231 [17] = assay: Antiproliferative activity against human MDA-MB-231 cells; format: functional, cell-based
[18] = target: T2, Insulin-like growth factor 1 receptor (Homo sapiens, UniProt P08069); assay: Inhibition of IGF-1R
[19] = target: Tyrosine-protein kinase ABL1 (Homo sapiens, UniProt P00519); assay: Inhibition of Abl
[20] = Clearance in mouse at 1 mg/kg, iv; format: ADME, organism-based; set-up: dose 1 mg/kg, route intravenous; details: in vivo
[21] = Half life in mouse at 1 mg/kg, iv; format: ADME, organism-based; set-up: dose 1 mg/kg, route intravenous; details: in vivo
[22] = Inhibition of mTORC2 dependent P4E-BP1 T37/46 phosphorylation in human MDA-MB-231 cells; format: cell-based
[23] = AUC (0 to infinity) in mouse at 20 mg/kg, po; format: ADME, organism-based; set-up: time infinity, dose 20 mg/kg, route oral; details: plasma
Mus musculus [24] = assay: Toxicity in CD-1 mouse xenografted with human MDA-MB-231 cells assessed as reduction in body weight at 100 mg/kg, po QD for 14 days; format: organism-based; set-up: dose 100 mg/kg, route oral; details: in vivo, 336 h
[25] = target: Vascular endothelial growth factor receptor 2 (Homo sapiens, UniProt P35968); assay: Inhibition of KDR
[26] = Volume of distribution at steady-state in mouse at 5 mg/kg, iv; format: ADME, organism-based; set-up: dose 5 mg/kg, route intravenous; details: in vivo, read-out: Vdss
[27] = Half life in mouse at 5 mg/kg, iv; format: ADME, organism-based; set-up: dose 5 mg/kg, route intravenous; details: in vivo
MDA-MB-231 [28] = assay: Antitumor activity against human MDA-MB-231 cells xenografted in CD-1 mouse at 100 mg/kg, po QD for 14 days; format: functional
[29] = Clearance in mouse at 5 mg/kg, iv; format: ADME, organism-based; set-up: dose 5 mg/kg, route intravenous; details: in vivo
[30] = AUC (0 to infinity) in mouse at 5 mg/kg, iv; format: ADME, organism-based; set-up: dose 5 mg/kg, route intravenous, time infinity; details: plasma
[31] = target: Epidermal growth factor receptor (Homo sapiens, UniProt P00533)
[32] = target: T2, Insulin-like growth factor 1 receptor; assay: Inhibition of IGF-1R by ELISA
MDA-MB-231 [33] = assay: Inhibition of mTORC2 dependent P4E-BP1 T37/46 phosphorylation in human MDA-MB-231 cells at 20 uM; format: cell-based
BT-20 = assay: Inhibition of mTORC2 dependent pAkT S473 phosphorylation in human BT-20 cells at 20 uM; format: cell-based

T2 sequence (P08069 31-736 limits assumed): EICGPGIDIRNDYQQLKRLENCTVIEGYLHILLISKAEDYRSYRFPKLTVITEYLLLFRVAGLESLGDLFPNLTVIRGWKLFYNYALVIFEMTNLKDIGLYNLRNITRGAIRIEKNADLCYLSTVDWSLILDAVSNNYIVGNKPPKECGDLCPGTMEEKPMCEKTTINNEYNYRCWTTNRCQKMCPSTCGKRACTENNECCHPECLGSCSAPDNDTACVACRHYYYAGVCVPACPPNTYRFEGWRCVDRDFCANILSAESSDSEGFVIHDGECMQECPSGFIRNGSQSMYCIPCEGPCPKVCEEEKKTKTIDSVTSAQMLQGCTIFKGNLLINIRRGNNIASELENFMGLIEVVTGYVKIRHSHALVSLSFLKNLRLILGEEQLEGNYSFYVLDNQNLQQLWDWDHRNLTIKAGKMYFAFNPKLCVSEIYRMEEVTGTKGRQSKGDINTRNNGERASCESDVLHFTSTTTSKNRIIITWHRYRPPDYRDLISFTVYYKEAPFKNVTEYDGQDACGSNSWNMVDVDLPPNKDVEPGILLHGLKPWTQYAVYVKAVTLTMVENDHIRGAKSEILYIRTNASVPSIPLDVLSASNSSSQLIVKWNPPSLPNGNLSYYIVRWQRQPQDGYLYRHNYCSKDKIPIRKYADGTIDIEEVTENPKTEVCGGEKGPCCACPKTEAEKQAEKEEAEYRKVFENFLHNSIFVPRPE
T2 sequence (P08069 741-1367 limits assumed): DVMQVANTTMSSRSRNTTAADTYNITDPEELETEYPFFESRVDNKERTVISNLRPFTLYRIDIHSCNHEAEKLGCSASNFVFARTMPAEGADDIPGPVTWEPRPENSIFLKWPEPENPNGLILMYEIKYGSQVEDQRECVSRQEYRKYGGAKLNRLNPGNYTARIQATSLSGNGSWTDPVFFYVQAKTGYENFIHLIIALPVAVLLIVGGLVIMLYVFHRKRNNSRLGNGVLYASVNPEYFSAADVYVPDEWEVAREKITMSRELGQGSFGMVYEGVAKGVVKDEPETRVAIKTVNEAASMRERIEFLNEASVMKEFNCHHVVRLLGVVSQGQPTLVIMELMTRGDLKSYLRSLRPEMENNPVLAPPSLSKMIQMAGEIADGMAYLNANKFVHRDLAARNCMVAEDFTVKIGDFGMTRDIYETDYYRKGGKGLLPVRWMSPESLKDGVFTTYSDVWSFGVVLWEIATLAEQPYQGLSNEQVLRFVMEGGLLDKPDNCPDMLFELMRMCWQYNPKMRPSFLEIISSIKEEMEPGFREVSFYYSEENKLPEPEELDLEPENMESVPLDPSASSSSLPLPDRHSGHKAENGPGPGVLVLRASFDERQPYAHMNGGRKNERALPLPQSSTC
Chain of RAF proto-oncogene serine/threonine-protein kinase (P04049 whole entry): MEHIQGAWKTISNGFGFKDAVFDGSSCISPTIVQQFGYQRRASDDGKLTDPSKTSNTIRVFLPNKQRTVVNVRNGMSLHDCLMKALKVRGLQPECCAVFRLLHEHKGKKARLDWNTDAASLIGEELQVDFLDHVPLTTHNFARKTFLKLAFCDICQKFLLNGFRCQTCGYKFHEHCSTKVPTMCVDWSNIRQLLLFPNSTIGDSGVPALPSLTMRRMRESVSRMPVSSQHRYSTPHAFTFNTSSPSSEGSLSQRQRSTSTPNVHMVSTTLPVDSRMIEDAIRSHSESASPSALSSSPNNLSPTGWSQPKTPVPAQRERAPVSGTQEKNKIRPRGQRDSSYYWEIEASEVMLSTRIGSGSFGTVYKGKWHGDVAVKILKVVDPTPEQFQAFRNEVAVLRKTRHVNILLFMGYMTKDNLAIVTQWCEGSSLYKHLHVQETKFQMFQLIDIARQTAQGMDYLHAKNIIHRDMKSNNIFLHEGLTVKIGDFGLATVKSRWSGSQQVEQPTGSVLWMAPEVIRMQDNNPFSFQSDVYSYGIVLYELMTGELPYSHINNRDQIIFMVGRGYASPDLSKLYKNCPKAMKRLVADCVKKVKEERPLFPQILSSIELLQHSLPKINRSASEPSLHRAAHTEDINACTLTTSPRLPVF
Chain of Proto-oncogene tyrosine-protein kinase Src (P12931 2-536 limits assumed): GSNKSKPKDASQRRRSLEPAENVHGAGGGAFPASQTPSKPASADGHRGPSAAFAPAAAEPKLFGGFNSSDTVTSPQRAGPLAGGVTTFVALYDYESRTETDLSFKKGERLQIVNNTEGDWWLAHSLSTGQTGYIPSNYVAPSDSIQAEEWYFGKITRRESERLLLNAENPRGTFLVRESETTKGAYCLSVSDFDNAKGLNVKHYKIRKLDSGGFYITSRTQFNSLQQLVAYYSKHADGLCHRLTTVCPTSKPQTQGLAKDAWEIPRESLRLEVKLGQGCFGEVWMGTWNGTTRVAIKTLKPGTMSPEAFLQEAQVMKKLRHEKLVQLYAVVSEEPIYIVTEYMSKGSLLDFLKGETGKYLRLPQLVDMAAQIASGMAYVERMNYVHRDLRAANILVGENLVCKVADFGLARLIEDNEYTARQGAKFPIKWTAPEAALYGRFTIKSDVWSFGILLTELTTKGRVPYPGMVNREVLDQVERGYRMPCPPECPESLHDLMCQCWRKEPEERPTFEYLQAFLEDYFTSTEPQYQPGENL
Chain of Insulin receptor (P06213 28-758 limits assumed): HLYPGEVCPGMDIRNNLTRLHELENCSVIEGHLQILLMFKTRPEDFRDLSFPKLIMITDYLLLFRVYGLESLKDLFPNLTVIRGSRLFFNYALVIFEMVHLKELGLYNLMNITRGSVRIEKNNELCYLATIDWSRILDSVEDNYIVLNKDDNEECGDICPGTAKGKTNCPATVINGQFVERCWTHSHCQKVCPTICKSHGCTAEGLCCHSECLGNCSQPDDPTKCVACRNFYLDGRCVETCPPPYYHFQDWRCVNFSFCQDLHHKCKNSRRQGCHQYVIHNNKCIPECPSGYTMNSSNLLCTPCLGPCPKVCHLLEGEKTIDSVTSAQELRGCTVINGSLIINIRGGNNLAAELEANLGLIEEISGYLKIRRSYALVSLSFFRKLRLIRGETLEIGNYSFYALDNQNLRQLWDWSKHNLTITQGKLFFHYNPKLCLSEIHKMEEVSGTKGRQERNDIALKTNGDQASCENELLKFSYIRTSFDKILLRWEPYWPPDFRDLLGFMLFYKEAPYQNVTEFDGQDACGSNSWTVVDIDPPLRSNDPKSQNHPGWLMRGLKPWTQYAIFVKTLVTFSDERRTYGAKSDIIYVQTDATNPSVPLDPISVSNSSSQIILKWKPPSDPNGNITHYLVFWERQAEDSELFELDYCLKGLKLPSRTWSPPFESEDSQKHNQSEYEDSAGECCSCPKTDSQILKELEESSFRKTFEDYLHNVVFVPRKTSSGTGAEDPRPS
Chain of Insulin receptor (P06213 763-1382 limits assumed): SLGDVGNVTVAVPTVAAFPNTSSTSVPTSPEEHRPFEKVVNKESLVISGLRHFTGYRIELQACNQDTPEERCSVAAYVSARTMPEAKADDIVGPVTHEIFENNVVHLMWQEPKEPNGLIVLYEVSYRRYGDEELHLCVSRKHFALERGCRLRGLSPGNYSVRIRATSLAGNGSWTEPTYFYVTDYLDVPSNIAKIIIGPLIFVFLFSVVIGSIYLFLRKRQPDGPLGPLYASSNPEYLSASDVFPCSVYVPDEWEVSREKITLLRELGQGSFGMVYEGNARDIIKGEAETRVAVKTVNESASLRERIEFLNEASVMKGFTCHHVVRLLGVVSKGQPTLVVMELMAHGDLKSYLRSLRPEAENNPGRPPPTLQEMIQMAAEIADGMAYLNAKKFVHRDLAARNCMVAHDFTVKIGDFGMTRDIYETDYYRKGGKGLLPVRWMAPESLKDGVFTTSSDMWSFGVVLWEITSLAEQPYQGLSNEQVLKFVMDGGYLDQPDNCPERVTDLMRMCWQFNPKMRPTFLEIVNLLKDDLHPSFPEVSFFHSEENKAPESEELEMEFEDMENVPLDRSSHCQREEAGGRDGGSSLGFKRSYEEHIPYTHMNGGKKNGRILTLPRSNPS
Chain of Tyrosine-protein kinase ABL1 (P00519 whole entry): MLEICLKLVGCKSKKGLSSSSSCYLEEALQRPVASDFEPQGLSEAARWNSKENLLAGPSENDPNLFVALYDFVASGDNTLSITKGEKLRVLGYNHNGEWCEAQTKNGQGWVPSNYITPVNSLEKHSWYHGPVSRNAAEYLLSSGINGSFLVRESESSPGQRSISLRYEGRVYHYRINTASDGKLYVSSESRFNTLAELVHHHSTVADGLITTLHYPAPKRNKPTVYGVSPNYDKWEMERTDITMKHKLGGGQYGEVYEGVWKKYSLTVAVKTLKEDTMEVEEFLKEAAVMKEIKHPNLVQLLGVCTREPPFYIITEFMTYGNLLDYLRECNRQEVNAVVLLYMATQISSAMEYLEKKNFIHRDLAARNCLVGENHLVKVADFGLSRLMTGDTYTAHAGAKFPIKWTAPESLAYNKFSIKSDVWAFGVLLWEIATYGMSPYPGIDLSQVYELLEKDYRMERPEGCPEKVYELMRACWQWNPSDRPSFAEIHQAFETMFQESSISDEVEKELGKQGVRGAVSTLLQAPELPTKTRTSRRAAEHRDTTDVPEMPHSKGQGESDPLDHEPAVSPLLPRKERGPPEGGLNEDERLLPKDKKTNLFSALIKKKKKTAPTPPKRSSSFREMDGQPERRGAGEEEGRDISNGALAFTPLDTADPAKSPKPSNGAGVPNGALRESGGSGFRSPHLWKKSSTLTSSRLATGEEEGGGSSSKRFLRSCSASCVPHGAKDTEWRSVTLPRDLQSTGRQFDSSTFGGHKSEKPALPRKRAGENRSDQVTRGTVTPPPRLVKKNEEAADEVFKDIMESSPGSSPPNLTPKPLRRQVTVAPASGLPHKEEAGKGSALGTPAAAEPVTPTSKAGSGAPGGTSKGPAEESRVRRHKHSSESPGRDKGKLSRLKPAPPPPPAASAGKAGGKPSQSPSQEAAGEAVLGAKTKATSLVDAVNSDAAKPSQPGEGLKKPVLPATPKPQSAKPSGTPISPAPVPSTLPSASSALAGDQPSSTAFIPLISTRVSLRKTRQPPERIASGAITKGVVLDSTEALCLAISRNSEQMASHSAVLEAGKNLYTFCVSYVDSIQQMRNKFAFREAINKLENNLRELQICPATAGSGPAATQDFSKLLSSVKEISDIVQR

Nc1nccn2c(C3CCNCC3)nc(-c3cc4ccccc4[nH]3)c12
hepatic extraction ratio (in vitro): 0.18
IC50 (cells): > 10000 nM
hepatic extraction ratio [1]: 0.64

Nc1nccn2c(C3CCC3)nc(-c3cc4cccnc4[nH]3)c12
IC50 (cells): 400 nM

Nc1nccn2c(C3CCC3)nc(-c3ccc4ccc(-c5ccccc5)nc4c3)c12
IC50 (cells): > 9000 nM

CC(=O)NC[C@H]1CC[C@H](c2nc(-c3cc4ccccc4[nH]3)c3c(N)nccn32)CC1
fraction unbound [2]: 0.097
IC50 [3]: 1260 nM
IC50 [4]: 5300 nM
Activity (Mus musculus [5]): Active
Papp [6]: > 25 ×10⁻⁶ cm/s
IC50 [7]: 180 nM
Vd [8]: 0.2 L/kg
Cmax [9]: 30.6 µM
solubility [10]: > 100 µM
IC50 [11]: 11200 nM
AUC(0-inf) [12]: 6880 ng·h/mL
IC50 [13]: > 30000 nM
IC50 (cells): 210 nM
IC50 [14]: 960 nM
bioavailability [15]: 54%
Activity (Mus musculus [16]): Active
IC50 (Insulin receptor): 22600 nM
IC50 (MDA-MB-231 [17]): 7400 nM
IC50 [18]: 2720 nM
IC50 [19]: 1960 nM
clearance [20]: 2 mL/min/kg
half-life [21]: 1.6 h
IC50 [22]: 7400 nM
AUC(0-inf) [23]: 73800 ng·h/mL

Nc1nccn2c(C3CCC3)nc(-c3cccc(O)c3)c12
IC50 (cells): 1970 nM

CN1CCN([C@H]2C[C@@H](c3nc(-c4cc5ccccc5[nH]4)c4c(N)nccn43)C2)CC1
hepatic extraction ratio (in vitro): 0.44
IC50 (cells): 4000 nM
hepatic extraction ratio [1]: 0.2

Nc1nccn2c(C3CCC3)nc(-c3ccc4cc[nH]c4c3)c12
IC50 (cells): 3120 nM

CC(=O)N1CCN([C@H]2C[C@@H](c3nc(-c4cc5ccccc5[nH]4)c4c(N)nccn43)C2)CC1
hepatic extraction ratio (in vitro): 0.58
IC50 (cells): 350 nM
hepatic extraction ratio [1]: 0.59

Nc1nccn2c(C3CCC3)nc(-c3ccc4[nH]ccc4c3)c12
IC50 (cells): 2480 nM

CN(C)C(=O)N1CCC(c2nc(-c3cc4ccccc4[nH]3)c3c(N)nccn23)CC1
fraction unbound [2]: 0.119
IC50 [3]: 1380 nM
IC50 [4]: 770 nM
Activity (Mus musculus [5]): Active
Papp [6]: > 25 ×10⁻⁶ cm/s
Activity (Mus musculus [24]): Toxic
IC50 [25]: > 10000 nM
IC50 [7]: 1700 nM
Vd [26]: 0.4 L/kg
Cmax [9]: 35.9 µM
hepatic extraction ratio (in vitro): 0.68
solubility [10]: > 100 µM
IC50 [11]: > 30000 nM
IC50 [13]: > 30000 nM
IC50 (cells): 120 nM
half-life [27]: 0.9 h
IC50 [14]: > 10000 nM
hepatic extraction ratio [1]: 0.67
bioavailability [15]: 102%
Activity (Mus musculus [16]): Active
Activity (MDA-MB-231 [28]): 94%
IC50 (Insulin receptor): > 30000 nM
IC50 (MDA-MB-231 [17]): 9300 nM
IC50 [18]: > 30000 nM
IC50 [19]: > 10000 nM
clearance [29]: 7 mL/min/kg
IC50 [22]: 7800 nM
AUC(0-inf) [30]: 12100 ng·h/mL
AUC(0-inf) [23]: 49400 ng·h/mL
IC50 [31]: > 10000 nM

Nc1nccn2c1c(-c1cc3ccccc3[nH]1)nc2[C@H]1C[C@@H](CO)C1
hepatic extraction ratio (in vitro): 0.7
IC50 (cells): 320 nM
hepatic extraction ratio [1]: 0.79

Nc1nccn2c(C3CCC3)nc(-c3cc4ccccc4o3)c12
IC50 (cells): 260 nM

Nc1nccn2c1c(-c1cc3ccccc3[nH]1)nc2[C@H]1CC[C@H](CNC(=O)C2CCC2)CC1
hepatic extraction ratio (in vitro): 0.74
IC50 (cells): 170 nM
hepatic extraction ratio [1]: 0.79

NC[C@H]1CC[C@H](c2nc(-c3cc4ccccc4[nH]3)c3c(N)nccn32)CC1
hepatic extraction ratio (in vitro): 0.34
IC50 (cells): 1000 nM
hepatic extraction ratio [1]: 0.28

Nc1nccn2c(C3CCC3)nc(-c3ccc4nccnc4c3)c12
IC50 (cells): 2600 nM

CN1CCN(C(=O)N2CCC(c3nc(-c4cc5ccccc5[nH]4)c4c(N)nccn34)CC2)CC1
IC50 (cells): 1370 nM

Nc1nccn2c1c(-c1cc3ccccc3[nH]1)nc2[C@H]1CC[C@H](CNC=O)CC1
hepatic extraction ratio (in vitro): 0.64
IC50 (cells): 150 nM
hepatic extraction ratio [1]: 0.51

Nc1nccn2c(C3CCC3)nc(-c3ccc4cccnc4c3)c12
IC50 [32]: > 10000 nM
IC50 (cells): 900 nM

Nc1nccn2c(C3CCC3)nc(-c3ccc4ncccc4c3)c12
IC50 (cells): 7150 nM

Nc1nccn2c(C3CCC3)nc(-c3ccc4ccccc4c3)c12
IC50 (cells): 1360 nM

CC(=O)N1CCC(c2nc(-c3cc4ccccc4[nH]3)c3c(N)nccn23)CC1
hepatic extraction ratio (in vitro): 0.44
IC50 (cells): 690 nM
hepatic extraction ratio [1]: 0.43

Nc1nccn2c(C3CCC3)nc(-c3cc4ccccc4s3)c12
IC50 (cells): 130 nM

Nc1nccn2c(C3CCC3)nc(-c3ccc4occc4c3)c12
IC50 (cells): > 10000 nM

CS(=O)(=O)NC[C@H]1CC[C@H](c2nc(-c3cc4ccccc4[nH]3)c3c(N)nccn32)CC1
IC50 (cells): 410 nM

Nc1nccn2c(C3CCC3)nc(-c3cnc4ccccc4c3)c12
IC50 (cells): 2350 nM

Nc1nccn2c1c(-c1cc3ccccc3[nH]1)nc2[C@H]1CC[C@H](CO)CC1
hepatic extraction ratio (in vitro): 0.74
IC50 (cells): 220 nM
hepatic extraction ratio [1]: 0.67

Nc1nccn2c(C3CCC3)nc(-c3cccc4ccccc34)c12
IC50 (cells): > 10000 nM

Nc1nccn2c1c(-c1cc3ccccc3[nH]1)nc2[C@H]1C[C@@H](O)C1
hepatic extraction ratio (in vitro): 0.74
IC50 (cells): 370 nM
hepatic extraction ratio [1]: 0.6

Nc1nccn2c1c(-c1cc3ccccc3[nH]1)nc2[C@H]1CC[C@H](CNC(=O)c2ccoc2)CC1
hepatic extraction ratio (in vitro): 0.78
IC50 (cells): 90 nM
hepatic extraction ratio [1]: 0.76

Nc1nccn2c(C3CCC3)nc(-c3cc4ccccc4[nH]3)c12
hepatic extraction ratio (in vitro): 0.92
IC50 (cells): 460 nM
hepatic extraction ratio [1]: 0.94

Nc1nccn2c(C3CCC3)nc(-c3c[nH]c4ccccc34)c12
IC50 (cells): > 10000 nM

CO[C@H]1C[C@@H]2CC[C@@H](C)[C@@](O)(O2)C(=O)C(=O)N2CCCC[C@H]2C(=O)O[C@H]([C@H](C)C[C@@H]2CC[C@@H](O)[C@H](OC)C2)CC(=O)[C@H](C)/C=C(\C)[C@@H](O)[C@@H](OC)C(=O)[C@H](C)C[C@H](C)/C=C/C=C/C=C/1C
inhibition (MDA-MB-231 [33]): 40%
inhibition (BT-20): inactive

Nc1nccn2c(C3CCC3)nc(-c3ccc4sccc4c3)c12
IC50 (cells): 1300 nM
